Reference: PMC6269904, “Two New Monoterpene Glycosides from Qing Shan Lu Shui Tea with Inhibitory Effects on Leukocyte-Type 12-Lipoxygenase Activity” (Molecules, 2013)

Columns and labels:
[1] = molecular target: T1, leukocyte-type 12-lipoxygenase (leukocyte-type 12-LOX), porcine (Sus scrofa, UniProt P16469); assay: RP-HPLC of HETE products after reduction; type: biochemical
T1 construct: gene ALOX15; partially purified from J774A.1 cells overexpressing the porcine enzyme
T1 sequence (P16469 1-663): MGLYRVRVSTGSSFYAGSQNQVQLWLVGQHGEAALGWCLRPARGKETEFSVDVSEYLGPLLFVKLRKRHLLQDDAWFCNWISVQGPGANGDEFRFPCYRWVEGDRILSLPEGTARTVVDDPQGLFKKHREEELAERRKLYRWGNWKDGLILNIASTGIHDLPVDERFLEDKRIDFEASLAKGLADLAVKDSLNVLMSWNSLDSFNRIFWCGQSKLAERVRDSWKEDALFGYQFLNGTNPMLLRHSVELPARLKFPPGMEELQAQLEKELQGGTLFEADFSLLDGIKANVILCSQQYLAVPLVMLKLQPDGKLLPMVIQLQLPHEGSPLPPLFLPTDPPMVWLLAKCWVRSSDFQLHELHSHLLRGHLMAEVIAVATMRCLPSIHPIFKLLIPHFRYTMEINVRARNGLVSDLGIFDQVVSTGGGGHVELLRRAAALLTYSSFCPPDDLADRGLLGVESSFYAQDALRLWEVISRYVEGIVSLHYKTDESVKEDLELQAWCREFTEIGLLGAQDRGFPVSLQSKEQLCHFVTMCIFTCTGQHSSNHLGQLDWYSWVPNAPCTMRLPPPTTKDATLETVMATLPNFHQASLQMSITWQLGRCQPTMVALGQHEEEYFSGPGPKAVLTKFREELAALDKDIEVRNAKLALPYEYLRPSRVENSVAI

[2] = molecular target: T1, leukocyte-type 12-lipoxygenase (leukocyte-type 12-LOX), porcine; assay: RP-HPLC of HETE products ([…] nm) after reduction; type: biochemical; conditions: 25 μM arachidonic acid, 100 mM Tris-HCl pH 7.4, 30 °C, 5 min preincubation; partially purified enzyme

SMILES	IC50 [1] [nM]	no inhibition [2]
C/C(=C\CO[C@@H]1O[C@H](CO)[C@@H](OC(=O)/C=C/c2ccc(O)cc2)[C@H](O[C@@H]2O[C@@H](C)[C@H](O)[C@@H](O)[C@H]2O)[C@H]1O)C/C=C/C(C)(C)OO [compound 1, (2E,5E)-7-hydroperoxy-3,7-dimethyl-2,5-octadienyl-O-(α-L-rhamnopyranosyl)-(1″→3′)-(4′″-O-trans-p-coumaroyl)-β-D-glucopyranoside]	1700	
C/C(=C\CO[C@@H]1O[C@H](CO)[C@@H](OC(=O)/C=C\c2ccc(O)cc2)[C@H](O[C@@H]2O[C@@H](C)[C@H](O)[C@@H](O)[C@H]2O)[C@H]1O)C/C=C/C(C)(C)OO [compound 2, (2E,5E)-7-hydroperoxy-3,7-dimethyl-2,5-octadienyl-O-(α-L-rhamnopyranosyl)-(1′′→3′)-(4′′′-O-cis-p-coumaroyl)-β-D-glucopyranoside]	700	
O=C(O)/C=C/c1ccc(O)cc1 [p-coumaric acid]		showed no inhibition on leukocyte-type 12-LOX activity
